Reference: patent US11071730B2, “Substituted 6-azabenzimidazole compounds” (Gilead Sciences, Inc., priority 2018, dated 2021)

Target: human HPK1 (MAP4K1) (Homo sapiens (Human), UniProt Q92918)
Experiment: HPK1 IC50 Assay (TR-FRET biochemical kinase assay, STK S1 peptide substrate)
Settings: recombinant human HPK1 kinase domain 0.15 nM, 10 μM ATP, 1 μM STK S1 peptide; geometric mean
Summary of the method: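 Pre-activated recombinant kinase domain (insect cells; 0.15 nM) pre-incubated with compounds for 15 min, then 10 μM ATP and 1 μM STK S1 peptide added for 3 h at 25 °C in BES pH 7.0. Phosphorylation read by HTRF (665/620 nm). IC50 from four-parameter fits normalized to staurosporine/DMSO controls, geometric mean of repeats.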

Sequence of human HPK1 (MAP4K1) (Q92918 17-274): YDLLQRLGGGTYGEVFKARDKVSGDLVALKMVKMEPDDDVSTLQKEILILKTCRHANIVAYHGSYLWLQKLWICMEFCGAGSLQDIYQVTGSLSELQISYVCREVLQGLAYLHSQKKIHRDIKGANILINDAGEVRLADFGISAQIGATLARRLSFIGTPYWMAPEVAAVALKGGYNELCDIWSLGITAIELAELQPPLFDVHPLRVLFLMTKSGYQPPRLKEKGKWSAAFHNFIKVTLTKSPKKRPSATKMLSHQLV

SMILES | IC50 [nM]
Cc1cc(Nc2nc(-c3ccc4c(c3)N([C@H]3C[C@@H](N5CCC(C)(C)C5)C3)C(=O)C43CCN(C(=O)C4CCO4)CC3)cc3ncn(C(C)C)c23)c(F)cn1 (stereo partly drawn) [Example 133] | 0.2
CC(C)C(=O)N1CCC2(CC1)C(=O)N([C@H]1C[C@@H](N3CCCCC3)C1)c1cc(-c3cc4ncn(C(C)C)c4c(Nc4ccncc4F)n3)ccc12 [Example 171] | 0.5
CC(C)n1cnc2cc(-c3ccc4c(c3)N([C@H]3C[C@@H](N5CCCCC5)C3)C(=O)C43CCN(C(=O)C4(C#N)CC4)CC3)nc(Nc3ccncc3F)c21 [Example 142] | 0.3
COC1(C(=O)N2CCC3(CC2)C(=O)N([C@H]2C[C@@H](N4CCCCC4)C2)c2cc(-c4cc5ncn(C(C)C)c5c(Nc5ccncc5F)n4)ccc23)CCC1 [Example 107] | 0.3
CC(C)n1cnc2cc(-c3ccc4c(c3)N([C@H]3C[C@@H](N5C[C@H]6CC[C@H]6C5)C3)C(=O)C43CCN(C(=O)[C@@H](C)O)CC3)nc(Nc3ccncc3F)c21 [Example 113] | 0.07
CC(C)n1cnc2cc(-c3ccc4c(c3)N([C@H]3C[C@@H](N5CC6CCC(C6)C5)C3)C(=O)C43CCN(C(=O)C(C)(C)CO)CC3)nc(Nc3ccncc3F)c21 [Example 127] | 0.07
CC(C)n1cnc2cc(-c3ccc4c(c3)N([C@H]3C[C@@H](N5CCCCC5)C3)C(=O)C43CCN(C(=O)[C@@H](C)O)CC3)nc(Nc3ccnc(F)c3F)c21 [Example 102] | 0.1
CC(C)n1cnc2cc(-c3ccc4c(c3)N([C@H]3C[C@@H](N5CCCCC5)C3)C(=O)C43CCN(C(=O)C(C)(C)CO)CC3)nc(Nc3ccnc(F)c3F)c21 [Example 103] | 0.2
CCn1cnc2cc(-c3ccc4c(c3)N([C@H]3C[C@@H](N5CCCCC5)C3)C(=O)C43CCN(C(=O)C(C)C)CC3)nc(Nc3ccncc3F)c21 [Example 148] | 1.3
CC(=O)N1CCC2(CC1)C(=O)N([C@H]1C[C@@H](N3CC4CCC3CC4)C1)c1cc(-c3cc4ncn(C(C)C)c4c(Nc4ccncc4F)n3)ccc12 [Example 193] | 0.3
CC(=O)N1CCC2(CC1)C(=O)N([C@H]1C[C@@H](N3CCCCC3)C1)c1cc(-c3cc4ncn(C(C)C)c4c(Nc4cc5ccncc5cc4F)n3)ccc12 [Example 105, 1′-acetyl-6-(4-((7-fluoroisoquinolin-6-yl)amino)-3-isopropyl-3H-imidazo[4,5-c]pyridin-6-yl)-1-((1s,3s)-3-(piperidin-1-yl)cyclobutyl)spiro[indoline-3,4′-piperidin]-2-one] | 0.4
CC(C)n1cnc2cc(-c3ccc4c(c3)N([C@H]3C[C@@H](N5CCCCC5)C3)C(=O)C43CCN(C(=O)C4(C(C)C)COC4)CC3)nc(Nc3ccncc3F)c21 [Example 137] | 0.08
CC(C)n1cnc2cc(-c3ccc4c(c3)N([C@H]3C[C@@H](N5CCCC(C)(C)C5)C3)C(=O)C43CCN(C(=O)C4CCO4)CC3)nc(Nc3ccncc3F)c21 (stereo partly drawn) [Example 108] | 0.2

Same assay, conditions: recombinant human HPK1 kinase domain 0.15 nM, 10 μM ATP, 1 μM STK S1 peptide; geometric mean of multiple experiments

SMILES | IC50 [nM]
CC(C)n1cnc2cc(-c3ccc4c(c3)N([C@H]3C[C@@H](N5CCCC6(CC6)C5)C3)C(=O)C43CCN(C(=O)[C@@H](C)O)CC3)nc(Nc3ccncc3F)c21 [Example 36] | 0.3
CC(C)n1cnc2cc(-c3ccc4c(c3)N([C@H]3C[C@@H](N5CC(O)C(C)(C)C5)C3)C(=O)C43CCN(C4COC4)CC3)nc(Nc3ccncc3F)c21 (stereo partly drawn) [Example 37, 6-(4-((3-fluoropyridin-4-yl)amino)-3-isopropyl-3H-imidazo[4,5-c]pyridin-6-yl)-1-((1s,3s)-3-(4-hydroxy-3,3-dimethylpyrrolidin-1-yl)cyclobutyl)-1′-(oxetan-3-yl)spiro[indoline-3,4′-piperidin]-2-one] | 0.2
CC(C)n1cnc2cc(-c3ccc4c(c3)N([C@H]3C[C@@H](N5CCCCC5)C3)C(=O)C43CCN(C4COC4)CC3)nc(Nc3ccnc(F)c3F)c21 [Example 91, 6-(4-((2,3-difluoropyridin-4-yl)amino)-3-isopropyl-3H-imidazo[4,5-c]pyridin-6-yl)-1′-(oxetan-3-yl)-1-((1s,3s)-3-(piperidin-1-yl)cyclobutyl)spiro[indoline-3,4′-piperidin]-2-one] | 0.2
CC(C)n1cnc2cc(-c3ccc4c(c3)N([C@H]3C[C@@H](N5CCC(C)(C)C5)C3)C(=O)C43CCN(C4COC4)CC3)nc(Nc3ccnc(F)c3F)c21 [Example 93] | 0.2
CC(C)n1cnc2cc(-c3ccc4c(c3)N([C@H]3C[C@@H](N5CCCCC5)C3)C(=O)C43CCN(C(=O)[C@@H](C)O)CC3)nc(Nc3ccncc3F)c21 [Example 2] | 0.5
CC(C)n1cnc2cc(-c3ccc4c(c3)N([C@H]3C[C@@H](N5CCC(C)(C)C5)C3)C(=O)C43CCN(C4COC4)CC3)nc(Nc3ccncc3F)c21 [Example 75] | 0.4
CC(C)n1cnc2cc(-c3ccc4c(c3)N([C@H]3C[C@@H](N5CC6C(C5)C6(C)C)C3)C(=O)C4(C)C)nc(Nc3ccncc3F)c21 (stereo partly drawn) [Example 60] | 0.3
CC(C)n1cnc2cc(-c3ccc4c(c3)N([C@H]3C[C@@H](N5CCC6(CC6)C5)C3)C(=O)C4(C)C)nc(Nc3ccncc3F)c21 [Example 56] | 0.8
CC(C)n1cnc2cc(-c3ccc4c(c3)N([C@H]3C[C@@H](N5CC[C@H](F)C5)C3)C(=O)C43CCN(C4COC4)CC3)nc(Nc3ccncc3F)c21 [Example 46] | 1.1
CC(C)n1cnc2cc(-c3ccc4c(c3)N([C@H]3C[C@@H](N5C[C@@H](O)C(C)(C)C5)C3)C(=O)C43CCN(C4COC4)CC3)nc(Nc3ccncc3F)c21 [Example 40] | 0.6
CC(C)n1cnc2cc(-c3ccc4c(c3)N([C@H]3C[C@@H](N5CCCC6(CC6)C5)C3)C(=O)C43CCN(C(=O)C4(C)COC4)CC3)nc(Nc3ccncc3F)c21 [Example 35] | 0.2
